Values quoted from earlier work as cited in US8034766B2 (priority 2006, dated 2011).

Tested on: prion
Conditions: in vivo

For `CC(=O)OO` [Peracetic acid, peracetic acid], the “onward transmission rate following treatment” value is given as 100%.
